Experimental data taken from patent publication US10045978B2 (AB SCIENCE, priority 2010, dated 2018).

Experiments:
[1] = tested on: patients with indolent mastocytosis with handicap bearing the D816V c-Kit mutation; assay: Example 3 a posteriori analysis of new handicap and response criteria; type: in vivo, human
Source text: Of relevance to the invention described, the concepts of a restricted mast cell mediator release associated handicap population and a more stringently defined response criterion have been explored via a posteriori data analysis of a common study population. […] (Note, any discrepancies between directly equivalent data presented in example 2 and example 3 are due to the former being taken from preliminary data analysis and the latter being extended/validated data from that study).
A posteriori data analysis was carried out on a new, restricted mast cell mediator release associated handicap population (wherein patients were classified as having a handicap if after appropriate symptomatic treatments they fulfilled at least one of the following criteria: number of flushes/week ≥7; pruritus score ≥6; number of stools ≥4/day (i.e. diarrhea); micturition frequency ≥8/day (i.e. pollakiuria); Hamilton rating for depression ≥14; Fatigue Impact Scale (FIS) score ≥75; or EORTC quality-of-life questionnaire (QLQ-C30) score ≥60). […]

[2] = tested on: patients with indolent forms of mastocytosis with handicap; conditions: in vivo
[3] = tested on: patients with severe systemic mastocytosis; assay: Example 5 post-hoc analysis of pooled phase 2 studies; type: in vivo, human
Method: A first phase 2 study was conducted in patients with indolent forms of mastocytosis with handicap and not bearing activating point mutations in the phosphotransferase domain of c-Kit such as the main mutation Asp-816-Val. A second phase 2 study was conducted in patients with mastocytosis with handicap and bearing activating point mutations in the phosphotransferase domain of c-Kit such as the main mutation Asp-816-Val.
In one scenario, among those systemic mastocytosis patients from these pooled studies, 28 patients met the criteria for severe handicap at baseline, as defined as having at least one handicap selected from pruritus, flushes, fatigue or depression (defined respectively as: pruritus score ≥9, flushes frequency per week ≥8, FIS ≥75, or Hamilton score ≥19) with a total of 53 severe baseline handicaps reported (note that a given patient may present with more than one handicap). Assessment of treatment response on a handicap was defined as a ≥75% improvement from baseline on at least one handicap among pruritus, flushes, fatigue or depression.
In an alternative scenario, among those systemic mastocytosis patients from these pooled studies, 4 patients met the criteria for severe handicap at baseline, as defined as having handicaps of both pruritus and flushes (defined respectively as: pruritus score ≥9, and flushes frequency per week ≥8) with a total of 8 severe baseline handicaps reported. Assessment of treatment response on a handicap was defined as a ≥75% improvement from baseline on at least one handicap among pruritus or flushes. Overall, at week 24 there was a response rate of 50.0%.

[4] = from W8 to W24, listed as Masitinib

**Q.** Which overall response rate ([1]; new handicap thresholds and response criterion, n=11) does the source give for `Cc1ccc(NC(=O)c2ccc(CN3CCN(C)CC3)cc2)cc1Nc1nc(-c2cccnc2)cs1` [masitinib, 4-(4-methylpiperazin-1-ylmethyl)-N-[4-methyl-3-(4-pyridin-3ylthiazol-2-ylamino)phenyl]benzamide] here?
**A.** 52%

**Q.** And the overall response rate ([1]; original handicap thresholds and response criterion, n=14)?
**A.** 62%

**Q.** What about the “deaths during the study” value [2] of the same compound?
**A.** No deaths

**Q.** And the “Overall response ≥75%” value ([3]; Week 12, at least one severe handicap at baseline (28 patients))?
**A.** 28.3%

**Q.** What about the “Overall response ≥75%” value ([3]; Week 12, at least one severe handicap at baseline (28 patients), listed as Masitinib) of the same compound?
**A.** 25.0%

**Q.** And the “Overall response ≥75%” value ([3]; Week 24, at least one severe handicap at baseline (28 patients))?
**A.** 23.5%

**Q.** And the “Overall response ≥75%” value ([3]; Week 24, at least one severe handicap at baseline (28 patients), listed as Masitinib)?
**A.** 23.5%

**Q.** What about the “Overall response ≥75%” value ([3]; Week 24, severe pruritus and flushes at baseline (4 patients, 8 handicaps)) of the same compound?
**A.** 50.0

**Q.** And the “Cumulative response rate (≥75%): FIS only” value ([3]; from W8 to W24)?
**A.** 8.0%

**Q.** And the “Cumulative response rate (≥75%): Flushes only” value ([3]; from W8 to W24)?
**A.** 52.8%

**Q.** And the “Cumulative response rate (≥75%): Flushes or Pruritus” value ([3]; from W8 to W24)?
**A.** approximately 40%

**Q.** What about the “Cumulative response rate (≥75%): Hamilton only” value ([3]; from W8 to W24) of the same compound?
**A.** 16.7%

**Q.** What about the “Cumulative response rate (≥75%): Hamilton or FIS” value ([3]; from W8 to W24) of the same compound?
**A.** ~10%

**Q.** And the “Cumulative response rate (≥75%): Micturition frequency (pollakiuria) only” value ([3]; from W8 to W24)?
**A.** 1.8%

**Q.** What about the “Cumulative response rate (≥75%): Overall Response” value ([3]; from W8 to W24) of the same compound?
**A.** 26.1%

**Q.** And the “Cumulative response rate (≥75%): Pruritus only” value ([3]; from W8 to W24)?
**A.** 28.6%

**Q.** What about the “Cumulative response rate (≥75%): Stool frequency (diarrhea) only” value ([3]; from W8 to W24) of the same compound?
**A.** 18.4%

**Q.** And the “Cumulative response rate (≥75%): Flushes or Pruritus” value [3, 4]?
**A.** 38.8%

**Q.** What about the “Cumulative response rate (≥75%): Hamilton or FIS” value [3, 4] of the same compound?
**A.** 10.3%
